Data: patent US11421145B2, “Oil recovery methods using a formulation containing an unsaturated zwitterionic surfactant and a polymer” (King Fahd University of Petroleum and Minerals, priority 2019, dated 2022)

Assay: Solubility and compatibility in seawater (SW) and formation water (FW)
Format: physicochemical
Conditions: seawater and formation water
Protocol: Synthetic seawater (SW) and formation water (FW) were prepared using NaCl, Na2SO4, NaHCO3, CaCl2, and MgCl2. All the salts were obtained from Sigma-Aldrich, USA.
Solubility and compatibility of the surfactant in the reservoir and injection brine are the primary considerations for further evaluation of the unsaturated surfactant for EOR application. If the surfactant is not soluble in the seawater and formation brine, it can be rejected at the initial stage. […] After the compatibility test with SW and FW, the short-term thermal stability of the synthesized unsaturated surfactant was evaluated using TGA analysis. […] Only 3% weight loss was observed up to 200° C., which was mainly associated with solvent and water evaporation. […] TGA results helped to identify and eliminate the surfactants that had lower decomposition temperatures. However, for real field applications, long-term thermal stability of the surfactant must be considered, as the surfactant residence time in the reservoir could vary from a few days to a few months.

- solubility in SW and FW: poor solubility
Structure (SMILES): CCCCCCCCCCCCCCCCCC(=O)NCCC[N+](C)(C)CCCS(=O)(=O)[O-] [3-(N-stearamidopropyl-N,N-dimethylammonium)propanesulfonate, reference compound]
